Source: patent publication US6090828A, “5-aryleheteroarylalkyl-1,3,5-trisubstituted-1,2,4-triazole compounds for treatment of circulatory disorders” (priority 1997, dated 2000)
pIC50: −log10 of the molar value. Where two headings read alike, the source gives them in different places.

What was measured:
[1] = target: smooth muscle angiotensin II receptor; experiment: Assay A: Angiotensin II Binding Activity; details: 50% displacement of specifically bound 125I-AII; rat uterine membranes; pH 7.5; 25° C., 60 min
Description: Compounds of the invention were tested for ability to bind to the smooth muscle angiotensin II receptor using a rat uterine membrane preparation. […] Rat uterine membranes were prepared from fresh tissue. All procedures were carried out at 4° C. Uteri were stripped of fat and homogenized in phosphate-buffered saline at pH 7.4 containing 5 mM EDTA. The homogenate was centrifuged at 1500×g for 20 min., and the supernatant was recentrifuged at 100,000×g for 60 min. The pellet was resuspended in buffer consisting of 2 mM EDTA and 50 mM Tris-HCl (pH 7.5) to a final protein concentration of 4 mg/ml. […] The reaction was initiated by the addition of membrane protein and the mixture was incubated at 25° C. for 60 min. The incubation was terminated with ice-cold 50 mM Tris-HCl (pH 7.5) and the mixture was filtered to separate membrane-bound labelled peptide from the free ligand. The incubation tube and filter were washed with ice-cold buffer. Filters were assayed for radioactivity in a Micromedic gamma counter. Nonspecific binding was defined as binding in the presence of 10 μM of unlabelled AII. Specific binding was calculated as total binding minus nonspecific binding. […] Binding data were analyzed by a nonlinear least-squares curve fitting program.

rabbit aortic rings = target: T1, rabbit aortic rings (Oryctolagus cuniculus, UniProt P34976); experiment: Assay B: In Vitro Vascular Smooth Muscle Response for AII; design: species or system rabbit (male New Zealand white); details: rabbit aorta rings, two rabbits per antagonist, antagonist 10^-5 M, 5 minutes, AII contraction, Schild
T1 construct: The thoracic aorta was removed, cleaned of adherent fat and connective tissue and then cut into 3-mm ring segments; from tissue; host or cells: rabbit thoracic aorta rings, endothelium removed
T1 sequence (P34976 1-359): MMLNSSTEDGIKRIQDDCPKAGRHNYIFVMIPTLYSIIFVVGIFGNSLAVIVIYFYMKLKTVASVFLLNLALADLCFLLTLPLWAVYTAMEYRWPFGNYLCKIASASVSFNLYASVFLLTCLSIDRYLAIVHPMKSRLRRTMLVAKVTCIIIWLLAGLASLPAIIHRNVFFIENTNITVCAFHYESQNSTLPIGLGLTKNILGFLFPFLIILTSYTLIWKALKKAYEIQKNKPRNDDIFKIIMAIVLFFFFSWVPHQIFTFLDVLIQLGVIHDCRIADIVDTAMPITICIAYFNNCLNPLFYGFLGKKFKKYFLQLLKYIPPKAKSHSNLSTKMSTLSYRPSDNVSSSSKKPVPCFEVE
Description: The compounds of the invention were tested for antagonist activity in rabbit aortic rings. Male New Zealand white rabbits (2-2.5 kg) were sacrificed using an overdose of pentobarbital and exsanguinated via the carotid arteries. The thoracic aorta was removed, cleaned of adherent fat and connective tissue and then cut into 3-mm ring segments. The endothelium was removed from the rings by gently sliding a rolled-up piece of filter paper into the vessel lumen. The rings were then mounted in a water-jacketed tissue bath, maintained at 37° C., between moveable and fixed ends of a stainless steel wire with the moveable end attached to an FT03 Grass transducer coupled to a Model 7D Grass Polygraph for recording isometric force responses. […] The preparations were equilibrated for one hour before approximately one gram of passive tension was placed on the rings. Angiotensin II concentration-response curves were then recorded (3×10^-10 to 1×10^-5 M). Each concentration of AII was allowed to elicit its maximal contraction, and then AII was washed out repeatedly for 30 minutes before rechallenging with a higher concentration of AII. Aorta rings were exposed to the test antagonist at 10^-5 M for 5 minutes before challenging with AII. Adjacent segments of the same aorta ring were used for all concentration-response curves in the presence or absence of the test antagonist. […] The pA2 value is the concentration of the antagonist which increases the EC50 value for AII by a factor of two. Each test antagonist was evaluated in aorta rings from two rabbits.

[2] = read-out: pA2 (first of two values) (converted)
[3] = read-out: pA2 (second of two values) (converted)

pIC50 [1] | Kb (rabbit aortic rings; [2]) [nM] | Kb (rabbit aortic rings; [3]) [nM] | Compound
6.51 | 214 | – | CCCCn1nc(C=O)nc1Cc1ccc(-c2ccccc2-c2nnn[nH]2)nc1 [Example 30, 5-[2-[5-[[1-butyl-3-formyl-1H-1,2,4-triazol-5-yl]methyl]-2-pyridinyl]phenyl]-1H-tetrazole]
7.55 | – | – | CCCCn1nc(C(F)CCC)nc1Cc1ccc(-c2ccccc2-c2nnn[nH]2)nc1 (stereo not drawn) [Example 12, 5-[2-[5-[[1-butyl-3-(1-fluorobutyl)-1H-1,2,4-triazol-5-yl]methyl]-2-pyridinyl]phenyl]-1H-tetrazole]
7.07 | 25.1 | 72.4 | CCCCCn1nc(CCCC)nc1Cc1ccc(-c2ccccc2-c2nnn[nH]2)nc1 [Example 6, 5-[2-[5-[(1-pentyl-3-butyl-1H-1,2,4-triazol-5-yl)methyl]-2-pyridinyl]phenyl]-1H-tetrazole]
7.05 | 32.4 | 120 | CCCCn1nc(C(=O)NC(C)(C)C)nc1Cc1ccc(-c2ccccc2-c2nnn[nH]2)nc1 [Example 24, 5-[2-[5-[[1-butyl-3-(N-tertbutylamido)-1H-1,2,4-triazol-5-yl]methyl]-2-pyridinyl]phenyl]-1H-tetrazole]
6.38 | 38 | 178 | CCCCn1nc(C(F)F)nc1Cc1ccc(-c2ccccc2-c2nnn[nH]2)nc1 [Example 14, 5-[2-[5-[(1-butyl-3-difluoromethyl-1H-1,2,4-triazol-5-yl)methyl]-2-pyridinyl]phenyl]-1H-tetrazole]
7.11 | 9.33 | 21.9 | CCCCCc1nc(Cc2ccc(-c3ccccc3-c3nnn[nH]3)nc2)n(CCCC)n1 [Example 7, 5-[2-[5-[(1-butyl-3-pentyl-1H-1,2,4-triazol-5-yl)methyl]-2-pyridinyl]phenyl]-1H-tetrazole]
6.43 | 83.2 | 77.6 | CCCn1nc(C(F)(F)CC)nc1Cc1ccc(-c2ccccc2-c2nnn[nH]2)nc1 [Example 18, 5-[2-[5-[[1-propyl-3-(1,1-difluoropropyl)-1H-1,2,4-triazol-5-yl]methyl]-2-pyridinyl]phenyl]-1H-tetrazole]
7.01 | 6.46 | 4.17 | CCCCn1nc(/C=C/c2cccs2)nc1Cc1ccc(-c2ccccc2-c2nnn[nH]2)nc1 [Example 5, 5-[2-[5-[[1-butyl-3-[2-(2-thienyl)ethenyl]-1H-1,2,4-triazol-5-yl]methyl]-2-pyridinyl]phenyl]-1H-tetrazole]
7.19 | 13.5 | 19.5 | CCCCn1nc(C(=O)CCC)nc1Cc1ccc(-c2ccccc2-c2nnn[nH]2)nc1 [Example 11, 5-[2-[5-[[1-butyl-3-(1-oxobutyl)-1H-1,2,4-triazol-5-yl]methyl]-2-pyridinyl]phenyl]-1H-tetrazole]
7.23 | – | – | CCCCn1nc(C(C)(OC)OC)nc1Cc1ccc(-c2ccccc2-c2nnn[nH]2)nc1 [Example 33, 5-[2-[5-[[1-butyl-3-(1,1-dimethoxyethyl)-1H-1,2,4-triazol-5-yl]methyl]-2-pyridinyl]phenyl]-1H-tetrazole]
7.15 | 70.8 | 91.2 | CCCCn1nc(C(=O)NC)nc1Cc1ccc(-c2ccccc2-c2nnn[nH]2)nc1 [Example 23, 5-[2-[5-[[1-butyl-3-(N-methylamido)-1H-1,2,4-triazol-5-yl]methyl]-2-pyridinyl]phenyl]-1H-tetrazole]
6.41 | – | – | CCCCn1nc(C(C)=O)nc1Cc1ccc(-c2ccccc2-c2nnn[nH]2)nc1 [Example 34, 5-[2-[5-[[1-butyl-3-(1-oxoethyl)-1H-1,2,4-triazol-5-yl]methyl]-2-pyridinyl]phenyl]-1H-tetrazole]

Compound | pIC50 [1] | Kb (rabbit aortic rings; [2]) [nM] | Kb (rabbit aortic rings; [3]) [nM]
5-[2-[5-[[1-ethyl-3-(1,1-difluoroethyl)-1H-1,2,4-triazol-5-yl]methyl]-2-pyridinyl]phenyl]-1H-tetrazole [Example 15] | 5.77 | – | –
